From patent publication EP2951180B1, “2,6,7,8 SUBSTITUTED PURINES AS HDM2 INHIBITORS” (Merck Sharp & Dohme Corp., priority 2013, dated 2014)
Where two headings read alike, the source gives them in different places.

Molecular target: T1, HDM2 (Homo sapiens, UniProt Q00987)
T1 construct: Thioredoxin (N); made in house; host or cells: E. coli strain BL21(DE3)Rosetta
Test: HDM2 FRET assay (inhibition of binding of FITC labeled p53-pocket peptide to HDM2)
Conditions: for IC50: read-out: FRET IC50; for inhibition at 1 µM: read-out: inh. at 1000 nM (FRET)
How it was run: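 Displacement of FITC-p53 peptide (3 nM) from His-tagged HDM2 (0.5 nM) is measured by Tb-to-fluorescein FRET in PBS, 0.01% BSA, 0.01% Tween-20. IC50 values derive from 10-point curves.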

[1] = 0.5 nM HDM2 (residues 17 to 125), 3nM peptide, two hour incubation at room temperature

T1 sequence (Q00987 17-125): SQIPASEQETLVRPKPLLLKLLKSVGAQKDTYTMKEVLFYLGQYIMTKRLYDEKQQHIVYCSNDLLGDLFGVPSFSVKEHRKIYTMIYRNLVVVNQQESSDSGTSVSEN

Compound `CC(C)CC1CCCCN1c1nc2nc(C(=O)O)nc(N[C@H](C)C3CCC3)c2n1C[C@H]1CC[C@H](C)CC1` (stereo partly drawn) [Example 11.2, 6-(((R)-1-cyclobutylethyl)amino)-8-(2-isobutylpiperidin-1-yl)-7-((trans-4-methylcyclohexyl)methyl)-7H-purine-2-carboxylic acid] has an IC50 (Table 11) of 1.82 nM.
Compound `CC(C)c1ccnc(-c2nc3nc(CNS(C)(=O)=O)nc(N[C@H](C)C4CCC4)c3n2C[C@H]2CC[C@H](C)CC2)c1` [Example 12.9, N-[(6-{[(1R)-1-cyclobutylethyl]amino}-7-[(trans-4-methylcyclohexyl)methyl]-8-[4-(propan-2-yl)pyridin-2-yl]-7H-purin-2-yl)methyl]methanesulfonamide] has an IC50 [1] of 374 nM.
`Cc1cccc(-c2nc3nc(C(=O)O)nc(N[C@H](C)c4ccc(Cl)cc4)c3n2Cc2ccc(C(F)(F)F)cc2)c1` [Example 6.44, 6-{[(1R)-1-(4-chlorophenyl)ethyl]amino}-8-(3-methylphenyl)-7-[4-(trifluoromethyl)benzyl]-7H-purine-2-carboxylic acid] gave an IC50 (Table 6) of 372 nM.
With `CCN(c1nc(-c2noc(=O)[nH]2)nc2nc(-c3cc(C(C)C)ccn3)n(C[C@H]3CC[C@H](C)CC3)c12)[C@H](C)C1CCC1` [Example 15.24, 3-(6-{[(1R)-1-cyclobutylethyl](ethyl)amino}-7-[(trans-4-methylcyclohexyl)methyl]-8-[4-(1-methylethyl)pyridin-2-yl]-7H-purin-2-yl)-1,2,4-oxadiazol-5(4H)-one] the IC50 [1] was 716 nM.
`CC(C)c1ccnc(-c2nc3nc(C(=O)O)nc(N[C@H](c4ccccc4)C4CCC4)c3n2Cc2ccc(C(F)(F)F)cc2)c1` [Example 6.58, 6-{[(S)-cyclobutyl(phenyl)methyl]amino}-8-[4-(1-methylethyl)pyridin-2-yl]-7-[4-(trifluoromethyl)benzyl]-7H-purine-2-carboxylic acid] was tested, and the IC50 (Table 6) was 49.2 nM.
Work on `C[C@@H]1OCCN(c2nc3nc(-c4n[nH]c(=O)o4)nc(-c4cccc(Cl)c4)c3n2C[C@H]2CC[C@H](C)CC2)[C@@H]1c1ccccc1` [Example 16.132, 5-{6-(3-chlorophenyl)-7-[(trans-4-methylcyclohexyl)methyl]-8-[(2S,3R)-2-methyl-3-phenylmorpholin-4-yl]-7H-purin-2-yl} - 1,3,4-oxadiazol-2(3H)-one] yielded an IC50 [1] of 89.5 nM.
Work on `C[C@H]1CC[C@H](Cn2c(N3CCC[C@H]3C(F)(F)F)nc3nc(-c4noc(=O)[nH]4)nc(-c4cncc(Cl)c4)c32)CC1` [Example 16.74, 3-{6-(5-chloropyridin-3-yl)-7-[(trans-4-methylcyclohexyl)methyl]-8-[(2S)-2-(trifluoromethyl)pyrrolidin-1-yl]-7H-purin-2-yl}-1,2,4-oxadiazol-5(4H)-one] yielded an IC50 [1] of 0.585 nM.
Work on `COC[C@H](Nc1nc2nc(-c3noc(=O)[nH]3)nc(-c3cccc(Cl)c3)c2n1C[C@H]1CC[C@H](C)CC1)c1ccccc1` [Example 16.85, 3-{6-(3-chlorophenyl)-8-{[(1R)-2-methoxy-1-phenylethyl]amino}-7-[(trans-4-methylcyclohexyl)methyl]-7H-purin-2-yl}-1,2,4-oxadiazol-5(4H)-one] yielded an IC50 [1] of 2.87 nM.
With `C[C@@H](Nc1nc(C(=O)O)nc2nc(N3CCN(C)CC3)n(Cc3ccc(C(F)(F)F)cc3)c12)C1CC1` [Example 9.5, 6-{[(1R)-1-cyclopropylethyl]amino}-8-(4-methylpiperazin-1-yl)-7-[4-(trifluoromethyl)benzyl]-7H-purine-2-carboxylic acid] the IC50 (Table 9) was 2350 nM.
Work on `Cc1cccc(-c2nc3nc(C(=O)O)nc(N4CCCC4C4CCCCC4)c3n2Cc2ccc(C(F)(F)F)cc2)c1` (centres unmarked) [Example 6.80, 6-(2-cyclohexylpyrrolidin-1-yl)-8-(3-methylphenyl)-7-[4-(trifluoromethyl)benzyl]-7H-purine-2-carboxylic acid] yielded an inhibition at 1 µM of 40%.
For `C[C@@H](Nc1nc(C(=O)NS(C)(=O)=O)nc2nc(N3CCOC[C@H]3c3ccccc3)n(C[C@H]3CC[C@H](C)CC3)c12)C1CCC1` [Example 12.18, 6-{[(1R)-1-cyclobutylethyl]amino}-7-[(trans-4-methylcyclohexyl)methyl]-N-(methylsulfonyl)-8-[(3R)-3-phenylmorpholin-4-yl]-7H-purine-2-carboxamide], the IC50 [1] was 0.585 nM.
In the case of `CC([C@H]1CC[C@H](C)CC1)n1c(N2CCC[C@H]2CF)nc2nc(-c3n[nH]c(=O)o3)nc(-c3cncc(Cl)c3)c21` (single isomer, unassigned) [Example 18.47], the IC50 (Table 18) is reported as 5.14 nM.
`C[C@@H](Nc1nc(C(=O)O)nc2nc(COc3ccccc3)n(Cc3ccc(C(F)(F)F)cc3)c12)C1CCC1` [Example 10.1, (R)-6-((1-cyclobutylethyl)amino)-8-(phenoxymethyl)-7-(4-(trifluoromethyl)benzyl)-7H-purine-2-carboxylic acid] gave an IC50 (Table 10) of 37.5 nM.
For `C[C@@H](Nc1nc(-c2noc(=O)[nH]2)nc2nc(C3(c4ccccc4)CCC3)n(C[C@H]3CC[C@H](C)CC3)c12)C1CCC1` [Example 20.8, 3-[6-{[(1R)-1-cyclobutylethyl]amino}-7-[(trans-4-methylcyclohexyl)methyl]-8-(1-phenylcyclobutyl)-7H-purin-2-yl]-1,2,4-oxadiazol-5(4H)-one], the IC50 (Table 20) was 5.96 nM.
In the case of `C[C@@H](Nc1nc(C(=O)O)nc2nc(N(C)C(=O)C3CCCCC3)n(Cc3ccc(C(F)(F)F)cc3)c12)C1CCC1` [Example 10.4, (R)-6-((1-cyclobutylethyl)amino)-8-(N-methylcyclohexanecarboxamido)-7-(4-(trifluoromethyl)benzyl)-7H-purine-2-carboxylic acid], the IC50 (Table 10) is reported as 14.1 nM.
In the case of `COc1ncc(Cl)cc1-c1nc(-c2noc(=O)[nH]2)nc2nc(C3(c4ccccc4)CCC3)n(C[C@H]3CC[C@H](C)CC3)c12` [Example 20.14, 3-[6-(5-chloro-2-methoxypyridin-3-yl)-7-[(trans-4-methylcyclohexyl)methyl]-8-(1-phenylcyclobutyl)-7H-purin-2-yl]-1,2,4-oxadiazol-5(4H)-one], the IC50 (Table 20) is reported as 6.11 nM.
`CC(C)CC1COCCN1c1nc2nc(C(=O)O)nc(N[C@H](C)C3CCC3)c2n1Cc1ccc(C(F)(F)F)cc1` (stereo partly drawn) [Example 9.66, 6-{[(1R)-1-cyclobutylethyl]amino}-8-[3-(2-methylpropyl)morpholin-4-yl]-7-[4-(trifluoromethyl)benzyl]-7H-purine-2-carboxylic acid] gave an IC50 (Table 9) of 6.07 nM.
Compound `CCCN(CC)c1nc(C(=O)O)nc2nc(-c3cccc(C)c3)n(Cc3ccc(C(F)(F)F)cc3)c12` [Example 6.70, 6-[ethyl(propyl)amino]-8-(3-methylphenyl)-7-[4-(trifluoromethyl)benzyl]-7H-purine-2-carboxylic acid] has an inhibition at 1 µM of 39%.
Work on `Cc1cccc(-c2nc3nc(C(=O)O)nc(NC4CCCC(C)C4)c3n2Cc2ccc(C(F)(F)F)cc2)c1` (centres unmarked) [Example 6.20, 6-[(3-methylcyclohexyl)amino]-8-(3-methylphenyl)-7-[4-(trifluoromethyl)benzyl]-7H-purine-2-carboxylic acid] yielded an IC50 (Table 6) of 567 nM.
In the case of `CC(C)c1cc(-c2nc3nc(C(=O)O)nc(N[C@H](C)C4CCC4)c3n2C[C@H]2CC[C@H](C)CC2)ncc1F` [Example 15.8, 6-(((R)-1-cyclobutylethyl)amino)-8-(5-fluoro-4-isopropylpyridin-2-yl)-7-((trans-4-methylcyclohexyl)methyl)-7H-purine-2-carboxylic acid], the IC50 [1] is reported as 1.14 nM.
